Source: patent publication US20230241000A1, “GSK3 INHIBITOR-LOADED NANO FORMULATIONS AS A CANCER IMMUNOTHERAPEUTIC” (The Regents of the University of California, priority 2020, published 2023)
Entries after “also recorded” stand apart in the source; their conditions may differ.

How the values were obtained:
[1] = Remote loading of GSK3 inhibitors into silicasomes: encapsulation efficiency and loading capacity; assay type: physicochemical
Procedure: The overall scheme for the synthesis of silicasome carriers to deliver GSK3 inhibitors is outlined in FIG. 3. Briefly, a large batch (i.e. 120 g) synthesis of bare particles was carried out as previously, yielding ˜70 nm MSNPs (FIG. 3, panel A) (22). […] 20 mg soaked-in MSNPs were then used together with an ethanol suspended lipid solution, comprised of a mixture of 60 mg DSPC:Cholesterol:PE-PEG2000 (molar ratio of 6:4:0.3), for coating with a lipid bilayer by a flow through sonication procedure (FIG. 3, panel B). Following the removal of the non-encapsulated trapping agent, AZD2858, AZD1080, LY2090314, and 1-Azakenpaullone were dissolved in 0.9% saline and incubated with the silicasome carrier to assess the loading capacity in response to different feed weight percentages (FIG. 11).
Four GSK3 inhibitor-laden silicasome formulations were analyzed to assess encapsulation efficiency and loading capacity. 100 μL of the silicasomes suspension at 10 mg/mL in 0.9% NaCl (1 mg silicasomes) was added to AZD1080, AZD2858, LY2090314, and 1-azakenpaullone solutions, which were prepared by adding 50, 100 or 200 μg of each inhibitor to 900 μL water. These drug mass quantities provided feed weight percentages of 5, 10, and 20%, in comparison to the silicasome mass. Following execution of the remote loading procedure as detailed above, the crude solutions were used to assess absorbance in a glass bottom 96-well plate (Total Drug Absorbance). Silicasomes were centrifuged at 21,000×g for 15 minutes to pellet the particles. After removal of the supernatant, the silicasomes were re-suspended in aa fresh 0.9% NaCl solution. This was repeated three times to remove any unloaded inhibitor. The silicasome solution was then sampled and absorbance was measured to determine Loaded Drug Absorbance. Concentration-matched unloaded ‘blank’ silicasomes also had absorbance measured (Silicasome Blank Absorbance). Encapsulation efficiency was calculated by the following formula: […]
All measurements were taken using a SpectraMax M5 plate reader (Molecular Devices). All solutions were diluted 1/10 in 0.9% NaCl solution prior to absorbance reads. The absorbances used for each compound were: 418 nm for AZD1080, 383 nm for AZD2858, 213 nm for LY2090314, and 334 nm for 1-azakenpaullone.

MC38 colon cancer = assay: MC38 syngeneic colon cancer model, subcutaneous tumor growth; assay type: in vivo, C57BL/6 mice
Procedure: Treatment was repeated every three days for a total of three administrations. Mice were sacrificed four days after the final treatment. The study was executed as two separate experiments, using animal group sizes of n=6 and n=9, respectively. […] The first set of analyses was performed on the tumor volume growth curves (FIG. 5, panel A), impact on final tumor volumes (FIG. 5, panel B) and tumor weight (FIG. 5, panel C) at the time of sacrifice.
MC38 cells, stably transfected with a luciferase vector, were inoculated into the right flank of C57BL/6 mice, using 0.7×10^6 cells in 40% Matrigel 1×PBS solution. Tumors were allowed to grow to a size of ˜50 mm^3 prior to the initiation of treatment, approximately 14 days after initial inoculation. Mice with outlier tumor sizes (either too small or too large) were excluded from further study. The remaining animals were randomly assigned to the different treatment groups. Mice were treated with three injections, set three days apart, and were sacrificed 4 days after the final treatment administration. […] Two separate experiments were performed, the first with n=6 mice per group and the second with n=9 animals.

[2] = Maximum tolerated dose study of free AZD1080; assay type: in vivo; details: one-time tail vein injection, 5 to 25.3 mg/kg, weights recorded 14 days; listed as free AZD1080
Procedure: Dotted lines represent thresholds for toxicity (−15%) and weight loss requiring euthanasia (20%). Body weight changes are relative to individual mouse initial weights. N=4 mice per group, error bars are SEM.
In order to establish a safe working concentration for murine experiments on AZD1080, we used a previously established dose of 5 mg/kg for the treatment of an Alzheimer's-like disease process in rats (29) for planning of a maximum tolerated dose assessment (FIG. 14). […] This prompted us to continue the use of the established dose of 5 mg/kg, for a total of three injections in our animal studies.
The maximum tolerated dose of AZD1080 was determined using a protocol from the National Cancer Institute (72). C57BL/6 mice were injected with AZD1080 solutions via tail vein (100 μL) and weights were recorded daily for 14 days. AZD1080 was solubilized in 30% PEG400, 0.5% Tween-80, 5% polyethylene, and 64.5% 1×PBS. The injected amounts of AZD1080 were 5, 7.5, 11.25, 16.87, or 25.31 mg/kg per mouse, n=4 mice per group.

N#Cc1ccc2[nH]c(O)c(-c3ccc(CN4CCOCC4)cn3)c2c1 [AZD1080]
Encapsulation Efficiency ([1]; AZD1080 remote loaded in silicasome, feed weight of 5%, ± SD, 3 samples): 62.5% | Loading Capacity ([1]; AZD1080 remote loaded in silicasome, ± SD, 3 samples): 8.1 w/w % | solubility during remote loading (in words) ([1]; dissolved in 0.9% saline, incubated with silicasome carrier, feed weight %): good aqueous solubility | encapsulation efficiency in silicasomes (in words) ([1]; remote loading at 5, 10 or 20 feed weight %): highest encapsulation efficiency; also recorded: moderate efficiency | number of tumor-free animals at time of sacrifice (out of 15) (MC38 colon cancer; MC38, three administrations, n=15 per group): 3/15 | tumor growth inhibition in MC38 (significance vs saline) (MC38 colon cancer; three administrations every three days, sAZD1080 5 mg/kg IV, free AZD1080 5 mg/kg IP, SB415286 8 mg/kg IP, anti-PD-1 4 mg/kg IP, n=15): no significant effect on tumor growth inhibition | tolerability on dose escalation (weight loss, behavior, mortality, adverse events) [2]: devoid of significant weight loss, abnormal behavior or posture, mortality or other adverse events
